In US12655116B2, “Substituted isophthalic acid diamides” (Bayer Aktiengesellschaft, priority 2020, dated 2026):

Tests used:
MATIN [1] = assay: Pre-emergence herbicidal action against MATIN; format: in vivo, Matricaria inodora
Procedure, shortened: (§1)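 Seeds sown in sandy loam, soil-covered; compound sprayed on soil surface pre-emergence. Application: WP/EC, 600–800 l/ha, 0.2% wetting agent. Readout: visual % damage at 3 weeks.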

VIOTR [2] = assay: Pre-emergence herbicidal action against VIOTR; format: in vivo, Viola tricolor
Procedure, shortened: as §1

VIOTR [3] = assay: Post-emergence herbicidal action against VIOTR; format: in vivo, Viola tricolor; details: 20 g/ha
Procedure, shortened: (§2)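 Sandy loam, greenhouse; treatment 2–3 weeks after sowing, one-leaf stage. Aqueous suspension or emulsion from WP/EC sprayed on foliage (600–800 l/ha, 0.2% wetting agent). Readout: visual % action, ~3 weeks.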

AVEFA = assay: Pre-emergence herbicidal action against AVEFA; format: in vivo, Avena fatua; details: 80 g/ha, pre-emergence
Procedure, shortened: as §1

ALOMY [4] = assay: Pre-emergence herbicidal action against ALOMY; format: in vivo, Alopecurus myosuroides; details: pre-emergence
Procedure, shortened: as §1

AMARE [5] = assay: Post-emergence herbicidal action against AMARE; format: in vivo, Amaranthus retroflexus; details: 20 g/ha, visual assessment about 3 weeks after treatment, 100% = plants have died, 0% = like control plants
Procedure, shortened: as §2

ABUTH = assay: Pre-emergence herbicidal action against ABUTH; format: in vivo, Abutilon theophrasti
Procedure, shortened: as §1

ECHCG [6] = assay: Post-emergence herbicidal action against ECHCG; format: in vivo, Echinochloa crus-galli
Procedure, shortened: as §2

AMARE [7] = assay: Pre-emergence herbicidal action against AMARE; format: in vivo, Amaranthus retroflexus
Procedure, shortened: as §1

PHBPU [8] = assay: Pre-emergence herbicidal action against PHBPU; format: in vivo, Pharbitis purpurea; details: dosage 80 g/ha
Description: Seeds of monocotyledonous and dicotyledonous weed plants and crop plants are laid out in sandy loam soil in wood-fiber pots and covered with soil. The compounds of the invention, formulated in the form of wettable powders (WP) or as emulsion concentrates (EC), are then applied to the surface of the covering soil in the form of an aqueous suspension or emulsion at a water application rate equivalent to 600 to 800 l/ha, with addition of 0.2% wetting agent. After the treatment, the pots are placed in a greenhouse and kept under good growth conditions for the trial plants. The damage to the test plants is scored visually after a test period of 3 weeks by comparison with untreated controls (herbicidal activity in percent (%): 100% activity=the plants have died, 0% activity=like control plants). […] The tables below illustrate, in an illustrative manner, the post-emergence herbicidal action of the compounds of the invention, the herbicidal activity being stated in percent.

ECHCG [9] = assay: Pre-emergence herbicidal action against ECHCG; format: in vivo, Echinochloa crus-galli; details: 80 g/ha
Procedure, shortened: as §1

MATIN [10] = assay: Post-emergence herbicidal action against MATIN; format: in vivo, Matricaria inodora; details: dosage 20 g/ha
Procedure, shortened: as §2

ALOMY [11] = assay: Post-emergence herbicidal action against ALOMY; format: in vivo, Alopecurus myosuroides; details: dosage 20 g/ha, visual assessment about 3 weeks after treatment vs untreated controls
Procedure, shortened: as §2

VERPE [12] = assay: Pre-emergence herbicidal action against VERPE; format: in vivo, Veronica persica; details: dosage 80 g/ha
Procedure, shortened: as §1

DIGSA [13] = assay: Pre-emergence herbicidal action against DIGSA; format: in vivo, Digitaria sanguinalis
Procedure, shortened: as §1

SETVI = assay: Pre-emergence herbicidal action against SETVI; format: in vivo, Setaria viridis; details: dosage 80 g/ha
Procedure, shortened: as §1

PHBPU [14] = assay: Post-emergence herbicidal action against PHBPU; format: in vivo, Pharbitis purpurea; details: dosage 20 g/ha
Procedure, shortened: as §2

DIGSA [15] = assay: Post-emergence herbicidal action against DIGSA; format: in vivo, Digitaria sanguinalis; details: for Post-emergence action against DIGSA in %: 5 g/ha; for Post-emergence action against DIGSA: 20 g/ha
Procedure, shortened: as §2

VERPE [16] = assay: Post-emergence herbicidal action against VERPE; format: in vivo, Veronica persica; details: 20 g/ha
Procedure, shortened: as §2

[17] = 80 g/ha, scored visually after 3 weeks vs untreated controls (100% = plants have died, 0% = like control plants)
[18] = dosage 20 g/ha, scored visually after 3 weeks vs untreated controls, 100% = plants have died, 0% = like control plants
[19] = 20 g/ha, scored visually after 3 weeks vs untreated controls, 100% = plants have died, 0% = like control plants

Row | SMILES | Pre-emergence action against MATIN in % (MATIN [1]; dosage 20 g/ha) [%] | Pre-emergence action against MATIN in % (MATIN [1]; dosage 80 g/ha) [%] | Pre-emergence action against VIOTR in % (VIOTR [2]; dosage 20 g/ha) [%] | Pre-emergence action against VIOTR in % (VIOTR [2]; dosage 80 g/ha) [%] | Post-emergence action against VIOTR in % (VIOTR [3]) [%] | Post-emergence action at 20 g/ha against AMARE in % (AMARE [5]) [%] | Pre-emergence action against ABUTH (herbicidal activity) (ABUTH; [17]) [%] | Pre-emergence action against ABUTH (herbicidal activity in percent) (ABUTH; [18]) [%] | Post-emergence action against ECHCG in % (ECHCG [6]; dosage 20 g/ha) [%] | Pre-emergence action against AMARE in % (AMARE [7]; [19]) [%] | Pre-emergence action against AMARE in % (AMARE [7]; [17]) [%] | Pre-emergence action against PHBPU in % (PHBPU [8]) [%] | Pre-emergence action against ECHCG in % (ECHCG [9]) [%] | Post-emergence action against MATIN in % (MATIN [10]) [%] | Pre-emergence action against VERPE in % (VERPE [12]) [%] | Pre-emergence action against DIGSA in % (DIGSA [13]; dosage 20 g/ha) [%] | Pre-emergence action against DIGSA in % (DIGSA [13]; dosage 80 g/ha) [%] | Pre-emergence action against SETVI in % (SETVI) [%] | Post-emergence action against PHBPU in % (PHBPU [14]) [%] | Post-emergence action against DIGSA in % (DIGSA [15]) [%] | other results
1 | CCn1nnnc1NC(=O)c1ccc(C(F)F)c(C(=O)NCC2CC2)c1Br [Example 2-228] | 90 | 100 | 100 | 100 | 80 | 90 | 100 | 100 | 90 | 100 | 100 | 100 | 100 | 80 | 90 | 100 | 100 | 90 | 80 | 80 | Pre-emergence action against AVEFA in % (AVEFA): 80%; Pre-emergence action against ALOMY (herbicidal activity) (ALOMY [4]; [17]): 80%; Post-emergence action against ECHCG in % (ECHCG [6]; dosage 5 g/ha): 80%; Post-emergence action against ALOMY in % (ALOMY [11]): 80%; Post-emergence action against DIGSA (DIGSA [15]): 80%
2 | CCn1nnnc1NC(=O)c1ccc(C(F)F)c(C(=O)NC(C)C2CC2)c1Br (centres unmarked) [Example 2-340] | 100 | 100 | 100 | 100 | 80 | 100 | 100 | 100 | 90 | 100 | 100 | 80 | 100 | 80 | 100 | 100 | 100 | 100 | 80 | 80 | Post-emergence action against VERPE in % (VERPE [16]): 90%; Post-emergence action against DIGSA (DIGSA [15]): 90%
3 | Cc1nnc(NC(=O)c2ccc(C(F)(F)F)c(C(=O)NCC(F)(F)F)c2Cl)o1 [Example 6-120] |  |  |  |  |  |  |  |  |  |  |  |  |  |  |  |  |  |  |  |  | pest or weed control at 20 g/ha (VERPE [16]; Veronica persica, 504 h): 80%; pest or weed control at 20 g/ha (MATIN [1]; Tripleurospermum inodorum, 504 h, dosage 20 g/ha): 90%; pest or weed control at 80 g/ha (MATIN [1]; Tripleurospermum inodorum, 504 h, dosage 80 g/ha): 90%; pest or weed control at 80 g/ha (VIOTR [2]; Viola tricolor, 504 h, dosage 80 g/ha): 90%; pest or weed control at 80 g/ha (AVEFA; Avena fatua, 504 h): 90%; pest or weed control at 80 g/ha (ALOMY [4]; Alopecurus myosuroides, 504 h, 80 g/ha, scored visually after 3 weeks vs untreated controls (100% = plants have died, 0% = like control plants)): 90%; pest or weed control at 20 g/ha (ALOMY [4]; Alopecurus myosuroides, 504 h, 20 g/ha, scored visually after 3 weeks, 100% = plants have died, 0% = like control plants): 80%; pest or weed control at 20 g/ha (AMARE [5]; Amaranthus retroflexus, 504 h): 90%; pest or weed control at 80 g/ha (ABUTH; Abutilon theophrasti, 504 h, 80 g/ha, scored visually after 3 weeks vs untreated controls (100% = plants have died, 0% = like control plants)): 100%; pest or weed control at 20 g/ha (ABUTH; Abutilon theophrasti, 504 h, dosage 20 g/ha, scored visually after 3 weeks vs untreated controls, 100% = plants have died, 0% = like control plants, read-out: Pre-emergence action against ABUTH (herbicidal activity in percent)): 80%; pest or weed control at 20 g/ha (ECHCG [6]; Echinochloa crus-galli, 504 h, dosage 20 g/ha): 90%; pest or weed control at 20 g/ha (AMARE [7]; Amaranthus retroflexus, 504 h, 20 g/ha, scored visually after 3 weeks vs untreated controls, 100% = plants have died, 0% = like control plants): 100%; pest or weed control at 80 g/ha (AMARE [7]; Amaranthus retroflexus, 504 h, 80 g/ha, scored visually after 3 weeks vs untreated controls, 100% = plants have died, 0% = like control plants): 100%; pest or weed control at 80 g/ha (PHBPU [8]; Ipomoea purpurea, 504 h): 80%; pest or weed control at 80 g/ha (ECHCG [9]; Echinochloa crus-galli, 504 h): 100%; pest or weed control at 80 g/ha (DIGSA [13]; Digitaria sanguinalis, 504 h, dosage 80 g/ha): 90%; pest or weed control at 80 g/ha (SETVI; Setaria viridis, 504 h): 100%; pest or weed control at 20 g/ha (PHBPU [14]; Ipomoea purpurea, 504 h): 90%
